Key:
[1] = tested on: murine islets; assay: Murine islets ex vivo: ER stress, gene expression, insulin and proinsulin secretion; type: cell-based, mice
Method: Healthy islets were cultured with 10 μg/mL tunicamycin or 5 μM thapsigargin±IL-22 for 6 hours. Alternatively the islets were cultured in the presence of ER stress-inducing cytokines±IL-22 for 24 hours. The cultures were then cultured consecutively for 30 minutes in 2.8 mM glucose, 20 mM glucose, or a combination of 20 mM glucose and 100 nM GLP-1.
(§1) All mice were housed in sterilized, filter-topped cages in a conventional clean facility. Six to eight week old C57BL/6 male mice were fed ad libitum on a high fat diet containing 46% of available energy as saturated fat, 34% carbohydrate, 20% protein (Speciality feeds, SF04-027). Or on normal chow containing less than 10% saturated fat (GOLDMIX, 126575). Cages of mice were randomly allocated to the experimental groups by random draw. Investigators were not blinded to treatment by there were no subjective assessments made.
(§2) Total insulin and proinsulin were measured in supernatant from islet cultures or in serum from mice using commercially obtained ELISA kits from MILLIPORE and MERCODIA, respectively. The molar insulin concentration was determined by subtracting the molar proinsulin concentration from molar total insulin, and then the serum proinsulin:insulin ratio was calculated.

[2] = tested on: mice with high fat diet-induced obesity (HFDIO); assay: HFDIO Experiment 1: high fat diet induced obesity, treated last 3 weeks of 16; type: in vivo, C57BL/6 male mice
Source text: as §1, §2
From […] of the diet, mice were treated with 20 ng/g i.p. recombinant murine IL-22 twice weekly (R&D SYSTEMS), 3 μg/g anti-IL-23 weekly (ELI-LILLY), 0.1 mg/mouse anti-IL-24 weekly (PROTEIN TECH), or 0.5 mg/mouse irrelevant isotype control antibody, sacrificed and sampled.
Fasted i.p. glucose tolerance tests (2 g/kg glucose) and insulin tolerance tests (0.25 U/kg insulin; Humalog, Lilly) were performed at the times indicated in the Figure Legends.
Pancreatic tissue was fixed in 10% neutral buffered formalin and processed using standard histological techniques. Standard immunohistochemical and immunofluorescent staining methods were used to determine the presence of Grp78, insulin, glucagon, IL-22R1, proinsulin and ATF6-GFP.
The area in pixels/mm^2 was determined for Grp78 and insulin (immunofluorescence) and proinsulin (immunohistochemisty) in the core of β-cell rich area of 3-4 islets per mouse (n=6-10 mice) using IMAGEJ software version 1.45s. Live cell imagine in MIN6N8 cells was carries out at 37° C. in 5% CO2 in a chamber using an OLYMPUS XCELLENCE RT microscope.

[3] = tested on: 3T3 adipocytes; assay: 6-NBDG glucose uptake by 3T3 adipocytes with insulin secreted by islets; type: cell-based; details: insulin secreted by islets from HFD mice treated with 100 ng/g
Method: 3T3 cells were differentiated into adipocytes as previously described, and all experiments were carried out on day 8 post differentiation. 1×10^4 cells were seeded in a black 96-well plate and cultured in serum free 2.8 mM glucose media prior to the addition of insulin. Cells were treated for 1 h with 2 ng/mL recombinant insulin or total insulin from islet secretions at 37° C. as described in figure legends. Subsequently, cells were incubated with 6-(N-(7-nitrobenx-2-oxa-1,3-diazol-4-yl)amino)-6-deoxyglucose (6-NBDG) (MOLECULAR PROBES) for 20 min before cells were washed with PBS and glucose uptake was determined using a POLARstar Omega plate reader.

[4] = tested on: human pancreatic islets; assay: Oxidative stress (ROS, NO) in cultured human pancreatic islets; type: cell-based; details: 50 ng/mL, 30 min prior exposure, 2 hours culture
Method: Human islets were recovered from organ donors and placed into overnight culture in DMEM with 2.8 mM glucose and 10% FCS. Islets were then washed and transferred into serum free DMEM for 6 h prior to experiments to assess induction of oxidative stress. Islets were then cultured for 2-24 hours in the presence of 50 ng/mL of IFNγ, IL-1β, IL-23 or IL-24, or the free fatty acid palmitate at 0.5 mM, with or without exposure to 50 ng/mL IL-22 beginning 30 min prior to the introduction of the stress inducing cytokines or lipids. To test whether endogenous IL-22 affects human islet physiology the islets were treated for 2-24 hours with an anti-IL-22R1 (receptor) antibody at 10 μg/mL. ROS and nitrite were measured using the DCFDA and Greiss assays as described above for murine islets, and quantitative RT-PCR used to assess gene expression.

[5] = tested on: Human LS174T cells; assay: Oxidative stress (nitrite, Griess assay) in LS174T cells with 0.5 mM palmitate; type: cell-based; details: human LS174T cells, 0.5 mM palmitate
Method: Cell culture: Murine MIN6N8 cells were tested negative for mycoplasma. Cells were routinely cultured in phenol-red free DMEM (Life Technologies) containing 25 mM glucose (3.4 g/L sodium bicarbonate, 50 U/mL penicillin and streptomycin, 71.5 μM β-mercaptoethanol and 10% heat inactivated fetal bovine serum) and transferred to DMEM as above with 5.5 mM glucose 48 h prior to experimentation. Human LS174T cells were cultured in DMEM containing 10% heat-inactivated fetal bovine serum, 50 U mL^−1 penicillin and streptomycin.
The Griess Reagent Kit for Nitrite Determination was performed according to the manufacturer's instructions (Molecular Probes) to assess the intracellular levels of nitrite (the stable metabolite of nitric oxide) using lysates of β-cells prepared in RIPA buffer (150 mM NaCl, 1% NP40, 0.5% sodium deoxycholate, 0.1% SDS, 50 mM Tris, pH 7.5).

[6] = healthy islets, co-treatment with ER stress agents
[7] = HFDIO Experiment 1, 16 weeks on HFD
[8] = HFDIO Experiment 1, 16 weeks on NCD

For “IL-22: interleukin-22; recombinant murine IL-22 (R&D SYSTEMS) in the mouse experiments”, the “MIP2α mRNA” value ([1]; HFDIO islets cultured 24 h in 2.8 mM glucose ± 50 ng/mL IL-22) was “reduced substantially”, the “acute islet ER stress (Xbp1-splicing, Hspa5 mRNA)” value [1, 6] was “suppresses the acute islet oxidative stress-driven ER stress” and the “glucose and glucose plus GLP-1 stimulated insulin secretion” value [1, 6] was “restores appropriate glucose and glucose plus GLP-1 stimulated insulin secretion”. For the same substance, the proinsulin secretion ([1]; islets from HFDIO mice) was “proinsulin secretion ceased”, the “insulin hyper-secretion (GSIS)” value ([1]; islets from HFDIO mice, after culture) was “returned to levels in non-obese islets” and the “ER stress, antioxidant gene expression and Nos2” value ([1]; islets from HFDIO mice, culture 24 hours) was “reduced ER stress, increased antioxidant gene expression and decreased Nos2”. For the same substance, the “body weight during treatment” value ([2]; HFD) was “progressively lost weight during treatment without changing food consumption”, the “hepatic Hspa5 mRNA” value ([2]; HFD, after 3 weeks treatment) was “decreased substantially” and the “fasted serum proinsulin:insulin ratio” value ([2]; HFD, end of treatment) was “decreased the fasted serum proinsulin:insulin ratio”. For the same substance, the “reduction of serum proinsulin” value ([2]; HFD, fasted, end of treatment) was 92%, the “decrease of islet proinsulin” value ([2]; HFD, immunostaining) was 64% and the “reduction of Grp78 in the β-cell region of islets” value ([2]; HFD, immunostaining) was 75%. For the same substance, the β-cell insulin stores ([2]; HFD, immunostaining) was “returned to levels in non-obese mice”, the “reduction of the increase in IPGTT area under the curve (AUC glucose)” value ([2]; HFD, two weeks of treatment) was 82% and the “Body weight (% original)” value [2, 7] was 129 ± 9 % original. For the same substance, the Fasting blood glucose [2, 7] was 8.8 ± 0.9 mmol/L, the “Fasting serum insulin concentration” value [2, 7] was 1.1 ± 0.5 ng/mL and the “Fasting serum proinsulin concentration” value [2, 7] was 9.5 ± 3.8 pmol/L. For the same substance, the “Body weight (% original)” value [2, 8] was 118 ± 3 % original, the Fasting blood glucose [2, 8] was 8.9 ± 0.8 mmol/L and the “Fasting serum insulin concentration” value [2, 8] was 0.5 ± 0.1 ng/mL. For the same substance, the “Fasting serum proinsulin concentration” value [2, 8] was “Not detectable”, the “reduction in adipocyte 6-NBDG uptake vs insulin from islets of normal chow fed mice” value [3] was 11% and the “production of ROS and NO induced by IFN-γ, IL-1β, IL-23, IL-24 and palmitate” value [4] was “protected human islets from the production of ROS and NO”. The “fold higher concentrations required for the same effect as human recombinant IL-22 in suppressing oxidative stress (nitrite)” value [5] was about 64 fold.

— patent US10695406B2, “Modulation of cellular stress using a B-cell oxidative and/or endoplasmic reticulum stress inhibitor and a targeting agent” (THE UNIVERSITY OF QUEENSLAND, priority 2014, dated 2020)
